Results reported in patent US20240245677A1, “SELECTED COMPOUNDS FOR TARGETED DEGRADATION OF BRD9” (C4 THERAPEUTICS, INC., priority 2021, published 2024).
“And” between values parts separate entries of the source, which are not always exact repeats. Equal values may be shown once. Read-outs that look alike come from different tables or passages of the source.

Columns and labels:
bromodomain of BRD9 = target: T1, bromodomain of BRD9 (Homo sapiens, UniProt Q9H8M2); assay: AlphaLISA competition assay, binding to BRD9
T1 construct: made in house; host or cells: E. coli
Description: An AlphaLISA® (Perkin Elmer Inc., Dumfries, VA, USA) displacement assay was used to determine the binding affinity of Compound 1 to purified bromodomain of BRD9 protein.
Human histidine-tagged (His-tag) bromodomain of BRD9 was expressed in E. coli and purified, with a concentration of 1.1 mg/mL. The bromodomain of BRD9 was labeled with an AlphaLISA® donor bead (Catalog No. AS101R, Perkin Elmer Inc., Dumfries, VA, USA) attached via a His-tag on the protein. A potent BRD9 ligand was chemically modified to attach a biotin tag. The biotin tag was subsequently used to attach a streptavidin-labeled AlphaLISA® acceptor bead (Catalog No. AL125M, Perkin Elmer Inc., Dumfries, VA, USA).
Determination of the binding constant (Kd) of Compound 1 to the bromodomain of BRD9 was carried out using an AlphaLISA® competition assay, where binding of Compound 1 to BRD9 was measured via loss of signal upon displacement of biotinylated BRD9 ligand tagged with the AlphaLISA® acceptor bead. […]
Response (normalized signal), R, for each well containing the test compounds was calculated using the averaged signal from negative and positive control wells: […]
Compound 1 competed with fluorescence probe for binding to bromodomain of BRD9. […]

CRBN-DDB1 = target: T2, CRBN-DDB1 (Homo sapiens, UniProt Q96SW2); assay: Fluorescence polarization competition binding assay, CRBN-DDB1; settings: FP competition
T2 construct: His; purchased Wuxi Biortus Biosciences Co., Ltd
Description: Fluorescence polarization (FP) competition experiments were used to determine the binding affinity of Compound 1 to purified CRBN-DDB1 protein.
Human Histidine (His) CRBN and non-tag DDB1 (CRBN-DDB1 (5.64 mg/mL in 25 mM HEPES, 300 mM NaCl, 1 mM TCEP, pH 7.5)) was purchased from Wuxi Biortus Biosciences Co., Ltd. (Jiangsu, China) and stored at −80° C. until use. Potent CRBN-DDB1 ligand was chemically labeled with the commercially available fluorophore Alexa Fluor™ 647 (Invitrogen, Waltham, MA, USA) following manufacturer's instructions. Fluorescently labelled CRBN-DDB1 binding compound at 0.3 mM in DMSO was stored at −20° C.
The determination of the binding constant (Kd) of Compound 1 to CRBN-DDB1 was carried out using an established, sensitive and quantitative in vitro fluorescence polarization (FP) binding assay (Nasir & Jolley, 1999). […]
A 20 μL mixture containing 150 nM CRBN-DDB1 and 5 nM probe dye in 50 mM HEPES, pH 7.4, 200 mM NaCl, 1 mM TCEP and 0.05% Pluronic Acid F-127 was added to wells containing compound and incubated at room temperature for 1.5 hours. […] Matching control plates excluding CRBN-DDB1 were used to correct for background fluorescence (Shapiro et al., 2009). Plates were read on an EnVision® multimode plate reader (Catalog No. 2104-0010, Perkin Elmer Inc., Dumfries, VA, USA) with Cy5 polarization filters and mirror. […]

[1] = each occasion in duplicate, read-out: Kd, individual test occasion

**Q.** How did the Kd (bromodomain of BRD9; [1]) turn out when `COc1cc(-c2cn(C)c(=O)c(C)c2C)cc(OC)c1CN1CC[C@H](N2CCN(c3ccc(N[C@H]4CCC(=O)NC4=O)cc3F)CC2)C(F)(F)C1` [Compound 1, (S)-3-((4-(4-((S)-1-(2,6-dimethoxy-4-(1,4,5-trimethyl-6-oxo-1,6-dihydropyridin-3-yl)benzyl)-3,3-difluoropiperidin-4-yl)piperazin-1-yl)-3-fluorophenyl)amino)-piperidine-2,6-dione] was run?
**A.** 0.157 µM and 0.131 µM and 0.129 µM

**Q.** And the Kd (bromodomain of BRD9; n=3, read-out: Kd (geometric mean), binding affinity to BRD9)?
**A.** 0.139 µM

**Q.** And the Kd (CRBN-DDB1; [1])?
**A.** 2.1 µM and 1.6 µM and 2.3 µM

**Q.** What about the Kd (CRBN-DDB1; n=3, read-out: Kd (geometric mean), binding to CRBN-DDB1) of the same compound?
**A.** 2 µM
